A melting point compilation (Tetko et al.)

melting point [°C] | SMILES
170 to 171 | CC1=C[C@@]2(C)O[C@@H](c3ccccc3)[C@@H]1C(C#N)(C#N)C2(C#N)C#N
160 | Cc1ccc(C(=O)O)c(Cl)n1
120 | COc1ccc2c(c1)CC1(CCC(=O)C(C(=O)O)C1)C2=O (stereo unspecified)
246 to 248 | CC(=O)NC1C(Oc2c[nH]c3ccc(Br)c(Cl)c23)OC(CO)C(O)C1O (stereo unspecified)
138 to 141 | Cc1nccn1-c1ccc(C#N)cc1
75 | CCN(CC)CCn1cnc2c1c(=O)n(C)c(=O)n2C
118 | O=C1C(=Cc2ccccc2)CCCC1=Cc1ccccc1
201 to 203 | O=c1c(Cl)c(Cl)cnn1-c1ccc(F)c(Cl)c1
197 | O=C(O)Cc1nn(Cc2nc3cc(C(F)(F)F)ccc3s2)c(=O)c2ccccc12
-100 | FC(F)(F)C(F)(F)C(F)(F)C(F)(F)OC(F)(F)C(F)(F)C(F)(F)C(F)(F)F
153 to 158 | O=C(O)c1cc(F)c(Cl)cc1F
198 to 202 | O=CC(C=O)c1ccc2ccccc2n1
211 | O=C1C(C(O)c2ccc(O)cc2)C(C(F)(F)F)=NN1c1ccccc1 (stereo unspecified)
> 345 | O=[N+]([O-])c1cnc2ccccc2c1O
83 | OC(CS)C(O)CS (stereo unspecified)
92 to 93 | C=CCn1c2c(c3cc(OC)ccc31)CCc1cc(OC)ccc1-2
79 | CC(=O)CCc1oc2ccc(Br)cc2c1-c1ccc(C)o1
194 | CCN(CC)c1ccc(C(=O)O)cc1
146 | Nc1ccccc1C=Cc1cc(/C=C/c2ccccc2)c(N)cc1N
41 to 43 | NCc1ccc2sccc2c1
53 | Cc1ccc(C#N)c(F)c1
59 to 61 | CC1=CCC=C(C)CCC=C(C)CCC(C(C)C)C=C1 (stereo unspecified)
85 | c1ccc2sc(SN3CCOCC3)nc2c1
114 to 119 | CC(=O)OCC1OC(S)C(OC(C)=O)C(OC(C)=O)C1OC(C)=O (stereo unspecified)

melting point [°C] | SMILES
82 | Cn1cc(Cl)c(C=O)n1
205 to 208 | CCN(CC)c1ccc2cc(-c3nc4ccccc4s3)c(=O)oc2c1
211 to 212 | CSc1nc2cc([N+](=O)[O-])ccc2[nH]1
97 | O[C@@H]1CCCC/C=C\c2ccccc21
192 to 197 | O=C1c2ccccc2C(=O)c2cc(CO)ccc21
198 | COC(=O)C1=C(C)NC(C)=C(C(=O)OC)C1c1ccccc1
82 to 83 | O=Cc1ccc(-n2cccn2)cc1
143 to 144 | Clc1ccc2c(c1)c1cc(Cl)ccc1n2CC1CO1 (stereo unspecified)
67 to 70 | COC(=O)c1cc(OCc2ccccc2)cc(OCc2ccccc2)c1
46 | Cc1ccc2c(c1)C(=O)C2
123 to 125 | O=C(O)Cc1noc2ccccc12
64.5 | CCN(CC)CCNc1ccc(C)c2sc3ccccc3c(=O)c12
112 | Cc1ccncc1CNC(=O)c1ccccc1
150 | COCc1c(C(=O)OC(C)C)ncc2[nH]c3ccc(OCc4ccccc4)cc3c12
130 to 133 | NNC(=O)COc1ccc(OC(F)(F)F)cc1
86 | CC1=C(C(=O)OCc2ccccc2)C(c2ccccc2)N(C)C(=O)N1C (stereo unspecified)
132 | COc1ccc(NCC(=O)Nc2ccc(OC)cc2)cc1
56 to 58 | CCN(C(=S)Cl)c1ccccc1
35 | COc1c(F)cc(F)cc1C#N
253 | O=C(O)c1cc(O)c(O)c(O)c1
22.9 | CCCCCCCCCCCCCCCCCCN(C)C
81 to 84 | COc1ccc(-c2ccccc2)cc1N
279 to 281 | S=c1cc[nH]c(=S)[nH]1
112 | Cc1c(C)c(C)c(CC#N)c(C)c1C

melting point [°C] | SMILES
161 | N#Cc1ccc(Cl)cc1N
195 to 198 | Cc1nn(C)c(Cl)c1C(=O)O
-23.5 | CCC(C1CCCCC1)C1CCCCC1
94 | Cc1cccc(N(C)C(=S)Oc2ccc3c(c2)CCC3)c1
25 | COC(=O)CC(=O)c1ccccc1Cl
77 | COc1cccc(OC)c1N
82 to 84 | O=C(C=CC(=O)OCC(F)(F)C(F)(F)C(F)(F)C(F)(F)C(F)(F)C(F)(F)C(F)(F)F)OCC(F)(F)C(F)(F)C(F)(F)C(F)(F)C(F)(F)C(F)(F)C(F)(F)F
-10 to -8 | FC(F)(F)c1cc(Cl)c(Cl)c(Cl)c1
49 to 51 | Brc1ccc2c(c1)OCOC2
150 | Cc1cc(C(=O)O)c(C)n1C
117 to 120 | COc1ccc(Cn2ncc(Cl)c(Cl)c2=O)cc1
-70.7 | CCCCC(=O)OCCC
228 | Cc1cc(C)n2nc(N)c(/N=N/c3ccncc3)c2n1
4 | Ic1cccc2ccccc12
126 | COc1ccc(N2C(=O)C3ON=C(C(=O)c4ccc(C)cc4)C3C2=O)cc1 (stereo unspecified)
187 | Oc1ncccc1Br
161 | CCOC(=O)c1cc2cc3ccccc3cc2cc(C(=O)OCC)c1=O
75 to 77 | C=CCn1c(SC)nc2ccccc2c1=O
110 to 111 | COC(=O)c1cc(C)nc(Cl)n1
205 to 207 | NC(=S)c1c[nH]cn1
62 | FC(F)(F)c1cc(Cl)c2cccc(Cl)c2n1
59 to 61 | Brc1cccc(-c2cnco2)c1
325 | O=C(c1ccco1)c1nn2c(nc(=O)c3ccccc32)s1
41 | CCS(=O)(=O)c1ccc(F)cc1

melting point [°C] | SMILES
205 to 206 | CC(C)(C)c1cc(C(C)(C)C)c([N+](=O)[O-])c(C(C)(C)C)c1
151 to 153 | NNC(=O)CNS(=O)(=O)c1cccc2nsnc12
294 | Cc1ccccc1Nc1[nH]c(=S)nnc1-c1ccccc1
10 | C1CCCCCCCCC1
-70 | CCCCN(CCCC)CCCC
44 | CCCCCCCCCCCCCCCCCCNC
203 | CC(CCC(=O)O)C1CCC2C3C(O)CC4CC(O)CCC4(C)C3CCC12C (stereo unspecified)
224 to 225 | Ic1cn(C(c2ccccc2)(c2ccccc2)c2ccccc2)cn1
233 to 234 | Nc1ccc(O)cc1C(=O)O
140 to 142 | COc1cccc2onc(N)c12
86 to 88 | COc1ccc(C=CC(=O)Cl)c(Cl)c1OC
53 to 54 | O=C(O)c1ccccc1OC1CCOCC1
78 to 81 | CCOC(=O)c1c(C=O)c(C)n(-c2ccccc2)c1C
55 | c1csc(SSc2cccs2)c1
75 | CC(C)Cc1ccc(C(C)C(=O)O)cc1 (stereo unspecified)
91 to 95 | CC(=O)Oc1cc(OC(C)=O)cc(C(C)=O)c1
202 | CN(C)c1ccc(C(=O)C(=O)c2ccc(N(C)C)cc2)cc1
253 | CC(C(=O)O)C1CCC2C3CCC4CC(=O)CCC4(C)C3CCC12C (stereo unspecified)
151 | CC(=O)Nc1ccc(Br)c(F)c1
34 | CCOC(=O)c1ccc(OC(C)=O)cc1
236 to 238 | O=C(Nc1cccc(C(F)(F)F)c1)Nc1nnc(-c2ccc(Cl)cc2)o1
67 | CC(=O)C1C(=O)c2ccccc2CC1c1ccccc1 (stereo unspecified)
104 to 106 | O=S(=O)(Cl)Cc1ccc(C(F)(F)F)cc1
180 | O=C(O)c1ccnc(N2CCOCC2)c1

melting point [°C] | SMILES
90 | O=C(O)C(Cc1ccccc1)Cc1ccccc1
196 | O=[N+]([O-])c1cccc(NN=Cc2ccccc2)c1
69 | COc1cc(C(=O)OCCCl)cc(OC)c1OC
136 | CC(=O)Nc1ccc(Br)cc1OC(F)(F)F
94 to 97 | OCc1nccn1Cc1ccccc1
83 | CC1=C(O)C(=O)C(C(C)C)CC1 (stereo unspecified)
215 | Cn1c(/C(C#N)=N/Nc2ccc(Cl)cc2)nc2ccccc21
195 | NCCCCCCC(=O)O
80 to 82 | C/C=C/C1Nn2c(nnc2-c2ccc(OC)cc2)S1 (stereo unspecified)
56.5 | CCCOc1ccc(O)cc1
129 to 132 | CCCOc1c(Cl)cc(C(=O)O)cc1Cl
114 | O=[N+]([O-])c1ccc(-c2ccccc2)cc1
-3 | CCCCCCc1ccc2ccccc2c1
180 | CCC(C)(C)c1cc(O)c(C(C)(C)CC)cc1O
62.2 | C=CC(CO)N1C(=O)c2ccccc2C1=O (stereo unspecified)
208 to 210 | CSc1nc(N)nc(C23CC4CC(CC(C4)C2)C3)n1
67 | CCCCCC(O)C=CC1C(O)CC(=O)C1CC=CCCCC(=O)O (stereo unspecified)
184 | Nc1nc(-c2ccc(Br)cc2)cs1
191 | O=C1C=C(NCc2cccc(Cl)c2)C(=O)c2ccccc21
127 to 129 | O=[N+]([O-])c1ccc2c(c1)S(=O)(=O)CC2SCCO (stereo unspecified)

SMILES | melting point [°C]
CCNc1ccc2c(C(F)(F)F)cc(=O)oc2c1 | 158 to 159
Nc1nc(N)nc(NC2CC2)n1 | 225
Cc1cc(Cl)cc(Cl)c1 | 26
Cc1cc(N)c(N)cc1Cl | 137 to 140
O=S(=O)(c1ccc(Cl)cc1)c1cc(Cl)c(Cl)cc1Cl | 147
CC(C)(O)C#N | -19
C=COC=C | -101
COP(=S)(Oc1cc(Cl)c(Br)cc1Cl)c1ccccc1 (stereo unspecified) | 70.4
CN(c1c(F)c(F)c(F)c(F)c1F)[N+](=O)[O-] | 39.5
O=C(O)c1cccc(OOCl)c1 | 92
NCCOS(=O)(=O)O | 277 to 280
O=C(O)C1C2CCC(O2)C1C(=O)O (stereo unspecified) | 144
N#CCCCCCCCCC#N | 7
CC1=NNC(=O)C1(Br)Br | 131
CC(C)(C)c1ccc(CSc2cnn(C(C)(C)C)c(=O)c2Cl)cc1 | 112
